Patent US9980948B2, “Azaindole derivative having AMPK-activating activity” (Shionogi & Co., Ltd., priority 2014, dated 2018)
Like-named read-outs stand apart in the source and are kept apart here.

Target: T1, Human AMPK α2β2γ1 (Homo sapiens, UniProt O43741+P54646)
T1 construct: The full length cDNAs of human AMPK β2 (NM_005399.3) and human AMPK α2 (NM_006252.3); The full length cDNAs of human AMPK β2 (NM_005399.3); the full length cDNA of human AMPK γ1 (NM_002733.3) had been inserted into pET28b(+); 6xHis (N); made in house; host or cells: Escherichia coli BL21 CodonPlus (DE3)-RTL (AMPK); BL21 Star (DE3) (CaMKKβ)
T1 sequence (P54646 whole entry): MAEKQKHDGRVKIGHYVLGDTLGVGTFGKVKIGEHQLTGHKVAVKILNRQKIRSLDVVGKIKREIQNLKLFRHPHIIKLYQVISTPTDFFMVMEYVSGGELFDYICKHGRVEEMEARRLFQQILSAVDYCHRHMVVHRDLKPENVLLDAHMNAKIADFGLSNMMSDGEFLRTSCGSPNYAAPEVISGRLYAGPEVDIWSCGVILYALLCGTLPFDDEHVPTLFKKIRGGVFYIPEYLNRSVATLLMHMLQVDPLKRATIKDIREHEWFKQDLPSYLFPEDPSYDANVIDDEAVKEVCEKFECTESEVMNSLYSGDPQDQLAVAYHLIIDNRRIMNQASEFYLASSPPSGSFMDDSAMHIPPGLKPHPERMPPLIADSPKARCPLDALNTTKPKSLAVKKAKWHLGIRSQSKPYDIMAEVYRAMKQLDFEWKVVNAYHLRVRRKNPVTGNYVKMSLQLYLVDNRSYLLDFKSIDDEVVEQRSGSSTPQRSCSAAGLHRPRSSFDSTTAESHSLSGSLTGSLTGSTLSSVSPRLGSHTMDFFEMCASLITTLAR
T1 sequence (O43741 whole entry): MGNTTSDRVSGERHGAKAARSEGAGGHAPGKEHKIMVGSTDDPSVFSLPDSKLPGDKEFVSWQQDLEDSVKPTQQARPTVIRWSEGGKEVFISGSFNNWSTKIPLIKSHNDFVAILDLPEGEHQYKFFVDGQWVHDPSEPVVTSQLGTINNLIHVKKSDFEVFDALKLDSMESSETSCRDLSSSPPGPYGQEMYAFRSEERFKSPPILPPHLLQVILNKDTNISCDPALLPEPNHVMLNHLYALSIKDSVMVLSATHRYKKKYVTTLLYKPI
T1 sequence (P54619 whole entry partner): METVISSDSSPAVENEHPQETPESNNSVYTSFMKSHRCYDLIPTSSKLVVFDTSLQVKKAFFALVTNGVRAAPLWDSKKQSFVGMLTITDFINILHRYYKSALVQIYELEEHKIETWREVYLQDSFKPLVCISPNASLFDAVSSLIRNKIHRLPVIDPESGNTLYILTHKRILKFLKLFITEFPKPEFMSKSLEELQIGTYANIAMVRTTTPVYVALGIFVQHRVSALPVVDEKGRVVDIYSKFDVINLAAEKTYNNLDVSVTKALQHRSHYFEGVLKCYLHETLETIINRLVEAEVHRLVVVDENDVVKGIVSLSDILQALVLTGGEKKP
Assay: Test Example 2: evaluation of an activator for AMP-activated protein kinase (AMPK), human AMPK α2β2γ1 phosphorylated with CaMKK2, FL-Peptide 7 mobility shift
Format: biochemical
Settings: for Emax: read-out: Emax (maximum rate of increase in activity within the measurement range)
Method: The full length cDNAs of human AMPK β2 (NM_005399.3) and human AMPK α2 (NM_006252.3) were inserted into the MCS1 and MCS2 of the pETDuet-1 vector to prepare a human AMPK β2 and human AMPK α2 (6× His tag at the 5′ terminus) expressing plasmid. The plasmid was cotransfected with an expression plasmid, in which the full length cDNA of human AMPK γ1 (NM_002733.3) had been inserted into pET28b(+), into BL21 CodonPlus (DE3)-RTL to obtain an expression strain. The expression strain was cultured in TB medium, followed by induction with 0.5 mM IPTG, and cultured at 25° C. for 3 hours and then harvested.
An expression vector, in which the full length cDNA of human CAMKK β (NM_172226.1) had been inserted into pGEX-6P-3, was transfected into BL21 Star (DE3). The expression strain was cultured in TB medium, followed by induction with 0.5 mM IPTG, and cultured at 25° C. for 3 hours and then harvested.
Thus, phosphorylation treatment was carried out as pretreatment.
Human AMPK α2β2γ1 in an amount to give a conversion rate of approximately 10% by reaction for 2 hours, and CaMKK2 in an amount capable of sufficiently imparting activity to AMPK for one hour were mixed in a buffer solution consisting of a 50 mM HEPES-NaOH buffer solution (pH 7.0), 100 mM NaCl, 5 mM magnesium chloride, 0.1% bovine serum albumin, 0.2 mM sodium orthovanadate(V), 1 mM ethylene glycol-bis(2-aminoethyl ether)-N,N,N′,N′-tetraacetic acid (EGTA), 5 mM disodium β-glycerophosphate, 1 mM dithiothreitol and 0.2 mM ATP, and the obtained liquid was left to stand at 25° C. for 1 to 1.5 hours to sufficiently phosphorylate AMPK.
The obtained liquid was left to stand for 10 minutes.
The obtained liquid was allowed to react at 25° C. for 2 hours, and 10 μl of 20 mM EDTA was then added thereto to stop the reaction.
To detect phosphorylated fluorescent substrates, the reaction liquid was applied to a measuring device, LabChip EZ Reader II manufactured by Caliper Life Science, Inc., for detecting fluorescence by using differences in mobility due to differences in charge. The setting conditions for the device were pressure, −1.5 PSI; upstream voltage, −2250 V; downstream voltage, −400 V; post sample buffer sip time, 40 seconds; final delay, 120 seconds; and peak order, Product First.
A conversion rate was calculated from the peak heights of the resulting substrate and product. The conversion rate when not containing a compound was used as a control, and a concentration dependent curve was made by plotting the rate of increase in activity to the control at each concentration of a compound.

[1] = human AMPK α2β2γ1, 0.2 mM ATP final, 25° C., 2 hours
[2] = human AMPK α2β2γ1, relative to control (100%)

## N#Cc1c(O[C@@H]2CO[C@H]3[C@@H]2OC[C@H]3O)[nH]c2cc(Cl)c(OCc3c(F)cccc3F)nc12 [Compound I-1-1]
[1]
  EC150 (compound concentration showing 150% relative to the control (100%)): 330 nM
[2]
  Emax: 660%

## N#Cc1cc2[nH]c(O[C@@H]3CO[C@H]4[C@@H]3OC[C@H]4O)cc2nc1-c1ccc(N2CCOCC2)cc1 [Compound I-1-4]
[1]
  EC150 (compound concentration showing 150% relative to the control (100%)): 8.3 nM
[2]
  Emax: 849%

## O[C@@H]1CO[C@H]2[C@@H]1OC[C@H]2Oc1cc2nc(-c3c(F)cc(C4=CCOCC4)cc3F)c(F)cc2[nH]1 [Compound I-1-6]
[1]
  EC150 (compound concentration showing 150% relative to the control (100%)): 2 nM
[2]
  Emax: 647%

## N#Cc1c(O[C@@H]2CO[C@H]3[C@@H]2OC[C@H]3O)[nH]c2cc(Cl)c(-c3ccc(-c4ccccc4)cc3)nc12 [Compound I-1-7]
[1]
  EC150 (compound concentration showing 150% relative to the control (100%)): 59 nM
[2]
  Emax: 805%

## O=C(O)C1CC=C(c2ccc(-c3nc4cc(O[C@H]5CCOC5)[nH]c4cc3Cl)cc2)CC1 (stereo partly drawn) [Compound I-1-8]
[1]
  EC150 (compound concentration showing 150% relative to the control (100%)): 4.1 nM
[2]
  Emax: 338%

## O=C(CO)N1CC=C(c2cc(F)c(-c3nc4cc(O[C@@H]5CO[C@H]6[C@@H]5OC[C@H]6O)[nH]c4cc3Cl)c(F)c2)CC1 [Compound I-1-10]
[1]
  EC150 (compound concentration showing 150% relative to the control (100%)): 1.8 nM
[2]
  Emax: 751%

## O[C@@H]1CO[C@H]2[C@@H]1OC[C@H]2Oc1[nH]c2cc(Cl)c(-c3ccc(N4CCOCC4)cc3)nc2c1Cl [Compound I-1-11]
[1]
  EC150 (compound concentration showing 150% relative to the control (100%)): 3.9 nM
[2]
  Emax: 770%

## N#Cc1c(O[C@@H]2CO[C@H]3[C@@H]2OC[C@H]3O)[nH]c2cc(Cl)c(-c3ccc(C4=CCN(C(=O)CO)CC4)cc3)nc12 [Compound I-1-12]
[1]
  EC150 (compound concentration showing 150% relative to the control (100%)): 23 nM
[2]
  Emax: 779%

## O[C@@H]1CO[C@H]2[C@@H]1OC[C@H]2Oc1[nH]c2cc(Cl)c(-c3c(F)cc(C4=CCOCC4)cc3F)nc2c1Cl [Compound I-1-15]
[1]
  EC150 (compound concentration showing 150% relative to the control (100%)): 53 nM
[2]
  Emax: 680%

## CC(C)(C(=O)O)[C@H]1CC[C@H](Oc2cc3nc(-c4c(F)cc(N5CCOCC5)cc4F)c(Cl)cc3[nH]2)CC1 [Compound I-1-16]
[1]
  EC150 (compound concentration showing 150% relative to the control (100%)): 810 nM
[2]
  Emax: 204%

## OC[C@@H]1C[C@H](Oc2cc3nc(-c4c(F)cc(N5CCOCC5)cc4F)c(Cl)cc3[nH]2)CO1 [Compound I-1-18]
[1]
  EC150 (compound concentration showing 150% relative to the control (100%)): 22 nM
[2]
  Emax: 776%

## O=C(O)C1CC=C(c2ccc(-c3nc4c(Cl)c(O[C@@H]5CO[C@H]6[C@@H]5OC[C@H]6O)[nH]c4cc3Cl)cc2)CC1 (stereo partly drawn) [Compound I-1-20]
[1]
  EC150 (compound concentration showing 150% relative to the control (100%)): 2.9 nM
[2]
  Emax: 746%

## O=C(O)C1CC=C(c2cc(F)c(-c3nc4cc(O[C@H]5CCOC5)[nH]c4cc3Cl)c(F)c2)CC1 (stereo partly drawn) [Compound I-1-23]
[1]
  EC150 (compound concentration showing 150% relative to the control (100%)): 11 nM
[2]
  Emax: 341%

## O[C@@H]1CO[C@H]2[C@@H]1OC[C@H]2Oc1cc2nc(-c3ccc(N4CCOCC4)cc3F)c(Cl)cc2[nH]1 [Compound I-1-25]
[1]
  EC150 (compound concentration showing 150% relative to the control (100%)): 11 nM
[2]
  Emax: 768%

## CN(C)CCOc1ccc(-c2ccc(-c3nc4c(C#N)c(O[C@@H]5CO[C@H]6[C@@H]5OC[C@H]6O)[nH]c4cc3Cl)cc2)cc1 [Compound I-1-37]
[1]
  EC150 (compound concentration showing 150% relative to the control (100%)): 6 nM
[2]
  Emax: 859%

## COc1cccc(-c2ccc(-c3nc4c(C#N)c(O[C@@H]5CO[C@H]6[C@@H]5OC[C@H]6O)[nH]c4cc3Cl)cc2)c1O [Compound I-1-38]
[1]
  EC150 (compound concentration showing 150% relative to the control (100%)): 1.5 nM
[2]
  Emax: 841%

## O[C@@H]1CO[C@H]2[C@@H]1OC[C@H]2Oc1cc2nc(-c3ccc(N4CCOCC4)cc3)c(F)cc2[nH]1 [Compound I-1-39]
[1]
  EC150 (compound concentration showing 150% relative to the control (100%)): 5.3 nM
[2]
  Emax: 788%

## CC(C)(C(=O)O)[C@H]1CC[C@H](Oc2cc3nc(-c4ccc(N5CC[C@@H](O)C5)cc4)c(Cl)cc3[nH]2)CC1 [Compound I-1-43]
[1]
  EC150 (compound concentration showing 150% relative to the control (100%)): 98 nM
[2]
  Emax: 302%

## O[C@@H]1CO[C@H]2[C@@H]1OC[C@H]2Oc1[nH]c2cc(F)c(-c3ccc(C4=CCOCC4)cc3)nc2c1Cl [Compound I-1-45]
[1]
  EC150 (compound concentration showing 150% relative to the control (100%)): 13 nM
[2]
  Emax: 718%

## O=C(CO)N1CC=C(c2ccc(-c3nc4cc(O[C@@H]5CO[C@H]6[C@@H]5OC[C@H]6O)[nH]c4cc3F)cc2)CC1 [Compound I-1-50]
[1]
  EC150 (compound concentration showing 150% relative to the control (100%)): 2.4 nM
[2]
  Emax: 827%

## O=C(O)C1CC=C(c2ccc(-c3nc4c(Cl)c(O[C@@H]5CO[C@H](CO)C5)[nH]c4cc3Cl)cc2)CC1 (stereo partly drawn) [Compound I-1-55]
[1]
  EC150 (compound concentration showing 150% relative to the control (100%)): 54 nM
[2]
  Emax: 689%

## N#Cc1c(O[C@@H]2CO[C@H]3[C@@H]2OC[C@H]3O)[nH]c2cc(Cl)c(-c3ccc(-c4ccc(-n5cncn5)cc4)cc3)nc12 [Compound I-1-58]
[1]
  EC150 (compound concentration showing 150% relative to the control (100%)): 3.8 nM
[2]
  Emax: 836%

## O[C@@H]1CO[C@H]2[C@@H]1OC[C@H]2Oc1[nH]c2cc(Cl)c(-c3ccc(C4(O)CCC4)cc3)nc2c1Cl [Compound I-1-62]
[1]
  EC150 (compound concentration showing 150% relative to the control (100%)): 5.7 nM
[2]
  Emax: 851%

## C/C(=C\CNC(=O)CO)c1ccc(-c2nc3c(Cl)c(O[C@@H]4CO[C@H]5[C@@H]4OC[C@H]5O)[nH]c3cc2Cl)cc1 [Compound I-1-63]
[1]
  EC150 (compound concentration showing 150% relative to the control (100%)): 6.3 nM
[2]
  Emax: 791%

## O[C@@H]1CO[C@H]2[C@@H]1OC[C@H]2Oc1cc2nc(-c3ccc(N4CCOCC4)cc3)c(C(F)(F)F)cc2[nH]1 [Compound I-2-2]
[1]
  EC150 (compound concentration showing 150% relative to the control (100%)): 38 nM
[2]
  Emax (maximum rate of increase in activity within the measurement range): 511%

## O[C@@H]1CO[C@H]2[C@@H]1OC[C@H]2Oc1cc2nc(-c3ccc(N4CCOCC4)cc3)c(Cl)c(F)c2[nH]1 [Compound I-2-3]
[1]
  EC150 (compound concentration showing 150% relative to the control (100%)): 6.9 nM
[2]
  Emax: 508%

## N#Cc1c(Cl)c(-c2ccc(N3CCOCC3)cc2)nc2cc(O[C@@H]3CO[C@H]4[C@@H]3OC[C@H]4O)[nH]c12 [Compound I-2-7]
  EC150 (compound concentration showing 150% relative to the control (100%)): 36 nM
  Emax (maximum rate of increase in activity within the measurement range): 322%

## O[C@@H]1CO[C@H]2[C@@H]1OC[C@H]2Oc1[nH]c2cc(Cl)c(-c3ccc(N4CCOCC4)cc3)nc2c1F [Compound I-2-8]
[1]
  EC150 (compound concentration showing 150% relative to the control (100%)): 8.9 nM
[2]
  Emax (maximum rate of increase in activity within the measurement range): 447%

## O[C@@H]1CO[C@H]2[C@@H]1OC[C@H]2Oc1[nH]c2cc(Cl)c(-c3ccc(N4CCOCC4)cc3)nc2c1Br [Compound I-2-9]
[1]
  EC150 (compound concentration showing 150% relative to the control (100%)): 66 nM
[2]
  Emax (maximum rate of increase in activity within the measurement range): 395%

## O[C@@H]1CO[C@H]2[C@@H]1OC[C@H]2Oc1[nH]c2cc(C(F)(F)F)c(-c3ccc(N4CCOCC4)cc3)nc2c1F [Compound I-2-10]
[1]
  EC150 (compound concentration showing 150% relative to the control (100%)): 49 nM
[2]
  Emax (maximum rate of increase in activity within the measurement range): 506%

## Cn1cc(-c2ccc(-c3nc4c(C#N)c(O[C@@H]5CO[C@H]6[C@@H]5OC[C@H]6O)[nH]c4cc3Cl)cc2)cn1 [Compound I-2-11]
[1]
  EC150 (compound concentration showing 150% relative to the control (100%)): 40 nM
[2]
  Emax: 867%

## N#Cc1cc2[nH]c(O[C@@H]3CO[C@H]4[C@@H]3OC[C@H]4O)cc2nc1-c1ccc(C2=CCOCC2)cc1 [Compound I-2-19]
[1]
  EC150 (compound concentration showing 150% relative to the control (100%)): 1.6 nM
[2]
  Emax: 916%

## Cn1ccc2cc(-c3nc4c(C#N)c(O[C@@H]5CO[C@H]6[C@@H]5OC[C@H]6O)[nH]c4cc3Cl)ccc21 [Compound I-2-28]
[1]
  EC150 (compound concentration showing 150% relative to the control (100%)): 57 nM
[2]
  Emax: 446%
